In US8841310B2, “Combinations of a pyrimidine containing NNRTI with RT inhibitors” (Janssen R & D Ireland, priority 2003, dated 2014):
Read-outs that look alike come from different tables or passages of the source.

Experiments:
[1] = system: HIV-1; details: cited from earlier work
[2] = system: HIV-1; details: human PBMCs and MT-2 cells, increasing drug concentrations; cited from earlier work
[3] = target: T1, HIV-1 RT (Human immunodeficiency virus type 1 group M subtype B, UniProt P04585); details: read-out: inhibition constant; cited from earlier work
T1 construct: The primary target of tenofovir diphosphate is reverse transcriptase (RT)

[4] = system: HIV-1 wild type; assay: MT-4 cell-based antiviral assay (viral cytopathicity, tetrazolium); details: Human immunodeficiency virus 1, MT4
Description: (§1) Compound E-TMC278 was tested in a cell-based assay, using natural host cells of HIV. MT-4 cells (a cell line of human T cells) were infected with HIV-1 (wild type or mutants) and exposed to different concentrations of antiviral compound in the presence of 10% fetal calf serum. Cytotoxicity was determined in parallel with the antiviral activity so that the selectivity of the antiviral effect could be assessed. Active compounds have to penetrate the cell membrane in order to interfere with replication steps inside the cell.
(§2) After four days of incubation at 37° C., the viability of the HIV and mock-infected cells was assessed by an automated tetrazolium-based calorimetric assay. This method enabled the calculation of both the 50% inhibitory concentration for inhibition of viral cytopathicity (IC50), the IC90, and the 50% cytotoxic concentration (CC50). The ratio CC50/IC50, also called the selectivity index, is an indication of the specificity of the antiviral effect. Tested HIV strains included: Wild type (wt) HIV-1; a panel of single and double mutants, obtained by site-directed mutagenesis (SDM), and a panel of clinical isolates, selected for resistance against NNRTIs.

[5] = system: HIV-1 double mutant 100I + 103N; assay: MT-4 cell-based antiviral assay, SDM mutant
Description: as §1, §2
(§3) A limited panel of HIV-1 mutants was constructed using site-directed mutagenesis (SDM) and homologous recombination techniques. […] Nevirapine (NVP) and efavirenz (EFV) were included as controls.

[6] = system: HIV-1 double mutant 101E + 103N; assay: MT-4 cell-based antiviral assay, SDM mutant; details: Human immunodeficiency virus 1, MT4, 96 h
Description: as §1, §2, §3

[7] = system: HIV-1 double mutant 103N + 181I; assay: MT-4 cell-based antiviral assay, SDM mutant; details: Human immunodeficiency virus 1, MT4, 96 h
Description: as §1, §2, §3

[8] = system: HIV-1 double mutant 227L + 106A; assay: MT-4 cell-based antiviral assay, SDM mutant
Description: as §1, §2, §3

[9] = system: HIV-1 mutant 100I; assay: MT-4 cell-based antiviral assay, SDM mutant
Description: as §1, §2, §3

[10] = system: HIV-1 mutant 101E; assay: MT-4 cell-based antiviral assay, SDM mutant; details: Human immunodeficiency virus 1, MT4
Description: as §1, §2, §3

[11] = system: HIV-1 mutant 103N; assay: MT-4 cell-based antiviral assay, SDM mutant
Description: as §1, §2, §3

[12] = system: HIV-1 mutant 106A; assay: MT-4 cell-based antiviral assay, SDM mutant; details: Human immunodeficiency virus 1, MT4
Description: as §1, §2, §3

[13] = system: HIV-1 mutant 108I; assay: MT-4 cell-based antiviral assay, SDM mutant; details: Human immunodeficiency virus 1, MT4
Description: as §1, §2, §3

[14] = system: HIV-1 mutant 138K; assay: MT-4 cell-based antiviral assay, SDM mutant; details: Human immunodeficiency virus 1, MT4
Description: as §1, §2, §3

[15] = system: HIV-1 mutant 179D; assay: MT-4 cell-based antiviral assay, SDM mutant; details: Human immunodeficiency virus 1, MT4
Description: as §1, §2, §3

[16] = system: HIV-1 mutant 179E; assay: MT-4 cell-based antiviral assay, SDM mutant; details: Human immunodeficiency virus 1, MT4
Description: as §1, §2, §3

[17] = system: HIV-1 mutant 181C; assay: MT-4 cell-based antiviral assay, SDM mutant
Description: as §1, §2, §3

[18] = system: HIV-1 mutant 188C; assay: MT-4 cell-based antiviral assay, SDM mutant; details: Human immunodeficiency virus 1, MT4
Description: as §1, §2, §3

[19] = system: HIV-1 mutant 188H; assay: MT-4 cell-based antiviral assay, SDM mutant; details: Human immunodeficiency virus 1, MT4
Description: as §1, §2, §3

[20] = system: HIV-1 mutant 188L; assay: MT-4 cell-based antiviral assay, SDM mutant
Description: as §1, §2, §3

[21] = system: HIV-1 mutant 190A; assay: MT-4 cell-based antiviral assay, SDM mutant; details: Human immunodeficiency virus 1, MT4
Description: as §1, §2, §3

[22] = system: HIV-1 mutant 190S; assay: MT-4 cell-based antiviral assay, SDM mutant; details: Human immunodeficiency virus 1, MT4
Description: as §1, §2, §3

[23] = system: HIV-1 mutant 225H; assay: MT-4 cell-based antiviral assay, SDM mutant; details: Human immunodeficiency virus 1, MT4
Description: as §1, §2, §3

[24] = system: HIV-1 mutant 227C; assay: MT-4 cell-based antiviral assay, SDM mutant
Description: as §1, §2, §3

[25] = system: HIV-1 mutant 227L; assay: MT-4 cell-based antiviral assay, SDM mutant; details: Human immunodeficiency virus 1, MT4
Description: as §1, §2, §3

[26] = system: HIV-1 mutant 236L; assay: MT-4 cell-based antiviral assay, SDM mutant; details: Human immunodeficiency virus 1, MT4
Description: as §1, §2, §3

[27] = system: HIV-1 mutant 234I; assay: MT-4 cell-based antiviral assay, SDM mutant; details: Human immunodeficiency virus 1, MT4
Description: as §1, §2, §3

[28] = system: wild type HIV-1; assay: Development of resistance in vitro, MT4 cells, high multiplicity of infection; type: cell-based; details: wild type HIV-1, >1 infectious virus per cell, all tested concentrations, total 30 days
From the text: Emerging virus was collected for pheno- and genotyping. Cultures without evidence of virus replication were further sub-cultivated in the presence of the same concentration of inhibitor for a total duration of 30 days (10 passages).

[29] = system: monotropic HIV strain Ba-L; assay: MO-DC/CD4(+) T cell co-culture model of sexual HIV transmission; type: cell-based; details: in words
From the text: Immature monocyte derived dendritic cells (immMO-DC) represent a good model for interstitial dendritic cells, which are early targets during sexual HIV transmission and important initiators of the immune response. These immMO-DC were used in “in vitro” models to test the prevention of HIV infection via sexual intercourse or related intimate contact between partners.
For instance, in one model, monocyte-derived dendritic cells (MO-DC) were infected for 2-hours with the monotropic HIV strain Ba-L at a multiplicity of infection (MOI) of 10^−3. After infection, cells were washed 6 times and resuspended in 10% BCS at 400.000 cells/ml. Autologous CD4(+) T cells were purified out of the lymphocyte fraction of the same elutration as the MO-DC and used at a concentration of 2×10^6 cells/ml ((ratio MO-DC/CD4(+) T: 1/5).
A serial dilution of a compound of formula (I) (test compound) was added to the MO-DC/CD4(+) T cell co-cultures. Each experiment was done in 96-well plates, in which each cup contained 50 μl of MO-DC, 50 μl of CD4(+) T cells and 100 μl of test compound. Half of the culture medium, with test compound, was refreshed twice weekly. Supernatants were analysed in ELISA after 14 days of culture. To determine antiviral activity, the test compound concentration able to suppress 50% of the viral replication at the end of the primary cultures (EC50) was measured.

[30] = system: HIV-1 double mutant 103N + 181C; assay: MT-4 cell-based antiviral assay, SDM mutant; details: Human immunodeficiency virus 1, MT4, read-out: IC50 value
Description: as §1, §2, §3

[31] = system: HIV; details: short course of monotherapy; cited from earlier work
[32] = system: wild-type or zidovudine-resistant HIV-1 strains; details: MT-4 cells; cited from earlier work
[33] = system: laboratory strain of HIV with combination of 65R, 74V, 115F and/or 184V; details: combination of resistance mutations; cited from earlier work
[34] = system: HIV-1 M184V; details: cited from earlier work
[35] = system: recombinant virus expressing the K65R mutation; details: in vitro; cited from earlier work
[36] = system: clinical HIV strains expressing the M184V mutation; details: cited from earlier work
[37] = system: simian immunodeficiency virus; details: SIV after 5 to 15 weeks treatment, 30 mg/kg, newborn rhesus macaques; cited from earlier work
[38] = wild type, MT-4 cells, 10% fetal calf serum, read-out: IC50
[39] = Human immunodeficiency virus 1, MT4, 96 h, 100I + 103N, MT-4 cells
[40] = Human immunodeficiency virus 1, MT4, 96 h
[41] = Human immunodeficiency virus 1, MT4
[42] = Human immunodeficiency virus 1, MT4, read-out: IC50 value

SMILES: Nc1nc(=O)n([C@@H]2CS[C@H](CO)O2)cc1F (racemic) [(−)-beta-enantiomer of FTC, Emtricitabine]
- in vitro anti-HIV-1 activity relative to the (+)-beta-enantiomer [1]: 20 fold

SMILES: Nc1nc(=O)n([C@@H]2CS[C@H](CO)O2)cc1F (racemic) [FTC, (±)-cis-4-amino-5-fluoro-1-[2-(hydroxymethyl)-1,3-oxathiolan-5-yl]-2(1H)-pyrimidinone]
- cycles of infection until highly drug-resistant variants dominated [2]: two or more

SMILES: CC(Cn1cnc2c(N)ncnc21)OCP(=O)(O)OP(=O)(O)OP(=O)(O)O (stereo in doubt) [Tenofovir diphosphate]
- Ki [3]: ~900 nM

SMILES: O=C1Nc2ccc(Cl)cc2[C@@](C#CC2CC2)(C(F)(F)F)O1 [EFV, efavirenz]
- IC50 [4, 38]: 1.4 nM
- IC50 [5, 39]: 10000 nM
- IC50 [6]: 84 nM
- IC50 [7]: 37 nM
- IC50 [8, 40]: 8 nM
- IC50 [9, 41]: 35 nM
- IC50 [10]: 5 nM
- IC50 [11, 41]: 28 nM
- IC50 [12]: 23 nM
- IC50 [13]: 2 nM
- IC50 [14]: 1.3 nM
- IC50 [15]: 6 nM
- IC50 [16]: 5 nM
- IC50 [17, 41]: 2 nM
- IC50 [18]: 5 nM
- IC50 [19]: 9 nM
- IC50 [20, 41]: 78 nM
- IC50 [21]: 8 nM
- IC50 [22]: 275 nM
- IC50 [23]: 2 nM
- IC50 [24, 41]: 36 nM
- IC50 [25]: 0.3 nM
- IC50 [26]: 1 nM

SMILES: Cc1ccnc2c1NC(=O)c1cccnc1N2C1CC1 [NVP, 11-cyclopropyl-5,11-dihydro-4-methyl-6H-dipyrido-[3,2-b: 2′,3′-e][1,4]diazepin-6-one]
- IC50 [4, 38]: 81 nM
- IC50 [5, 39]: 10000 nM
- IC50 [6]: 7030 nM
- IC50 [7]: 10000 nM
- IC50 [8, 40]: 10000 nM
- IC50 [9, 41]: 597 nM
- IC50 [10]: 547 nM
- IC50 [11, 41]: 2880 nM
- IC50 [12]: 2980 nM
- IC50 [14]: 64 nM
- IC50 [15]: 161 nM
- IC50 [16]: 158 nM
- IC50 [17, 41]: ≥ 10000 nM
- IC50 [18]: 3760 nM
- IC50 [19]: 241 nM
- IC50 [20, 41]: 10000 nM
- IC50 [21]: 4100 nM
- IC50 [22]: 10000 nM
- IC50 [23]: 171 nM
- IC50 [24, 41]: 1820 nM
- IC50 [25]: 78 nM
- IC50 [27]: 45 nM
- IC50 [26]: 41 nM
- time to emergence of resistant virus [28]: 3 to 6 days

SMILES: Cc1cc(C=CC#N)cc(C)c1Nc1ccnc(Nc2ccc(C#N)cc2)n1 [TMC278, 4-[[4-[[4-(2-cyanoethenyl)-2,6-dimethylphenyl]-amino]-2-pyrimidinyl]-amino]-benzonitrile]
- inhibition of HIV replication in MO-DC/CD4(+) T cell co-cultures [29]: potently inhibits HIV replication

SMILES: Cc1cc(/C=C\C#N)cc(C)c1Nc1ccnc(Nc2ccc(C#N)cc2)n1 [Z-TMC278, (Z)-4-[[4-[[4-(2-cyanoethenyl)-2,6-dimethylphenyl]-amino]-2-pyrimidinyl]-amino]-benzonitrile]
- IC50 ([4]; Table 1, HIV RT mutation: Wild-type, read-out: IC50 value): 0.6 nM
- IC50 ([5]; Human immunodeficiency virus 1, MT4, read-out: IC50 value, Table 1, HIV RT mutation: 100I + 103N): 790 nM
- IC50 [30]: 40 nM
- IC50 [8, 42]: 4 nM
- IC50 [9, 42]: 6.3 nM
- IC50 [11, 42]: 1.6 nM
- IC50 [17, 42]: 5 nM
- IC50 [20, 42]: 32 nM
- IC50 [24, 42]: 4 nM

SMILES: Nc1nc(NC2CC2)c2ncn([C@H]3C=C[C@@H](CO)C3)c2n1 [abacavir]
- average reduction in viral load [31]: more than 1.4 log 10 RNA copies/ml
- passages until significant decrease in susceptibility [32]: eight to ten
- reduction in susceptibility [33]: 10 fold
- decrease in HIV-1 susceptibility [34]: 3 fold

SMILES: C[C@H](Cn1cnc2c(N)ncnc21)OCP(=O)(O)O [tenofovir]
- decreased susceptibility [35]: 3 fold
- susceptibility in vitro [36]: wild-type or increased susceptibility
- decreased susceptibility [37]: approximately 5 fold
